Results as given in publication PMC6396024, “Artemin and an Artemin-Derived Peptide, Artefin, Induce Neuronal Survival, and Differentiation Through Ret and NCAM” (Frontiers in Molecular Neuroscience, 2019).
Bridge positions count the residues as written; N and C are the ends. Ends that are not written are not given here. I, II: the chains in the order shown.

B1: recombinant human Artemin (ARTN) (ligand, UniProt Q5T4W7 108-220, looked up)
chain: AGGPGSRARAAGARGCRLRSQLVPVRALGLGHRSDELVRFRFCSGSCRRARSPHDLSLASLLGAGALRPPPGSRPVSQPCCRPTRYEAVSFMDVNSTWRTVDRLSATACGCLG
notes: Artemin (ARTN), human, UniProt D3DPX9; source: bought: R&D Systems

Columns and labels:
[1] = system: FGFR; cerebellar granule neurons (CGNs); assay: Neurite outgrowth in CGNs with FGFR-inhibitor SU5402; assay type: cell-based, Wistar rat; settings: SU5402 20, 40, 80 μM; ARTN 0.21 nM or artefin 1.4 μM; p < 0.01
Protocol: (§1) Cerebellar granule neurons (CGNs) were prepared from 7-day-old Wistar rat pups (Charles River Laboratories, Sulzfeld, Germany) as previously described ([Schousboe et al., 1989]). Briefly, pups were decapitated, and the cerebellum was removed and cleared from blood vessels and meninges in ice-cold modified Krebs-Ringer buffer. The cerebellum was dissociated by chopping and trypsinization. Cells were washed in Krebs-Ringer buffer containing DNAse I (Sigma, St. Louis, MO, United States) and soybean trypsin inhibitor (Sigma) to stop trypsinization, and the remaining tissue pieces were pelleted by centrifugation. Cells were then washed in Krebs-Ringer buffer containing Ca^2+ and Mg^2+ and re-suspended in appropriate Neurobasal^TM medium (Invitrogen, Taastrup, Denmark) with supplements depending on the experiment.
Cerebellar granule neurons CGNs were re-suspended in Neurobasal^TM medium supplemented with 2% (v/v) B27, 0.5% (v/v) glutamax, 100 U/ml penicillin, 100 μg/ml streptomycin, 0.4% (w/v) BSA, and 20 mM HEPES and were seeded in 8-well LabTek Permanox chamber slides (Nunc) at a density of 1 × 10^4 cells/cm^2. Various concentrations of ARTN, artefin, scrambled artefin, or reversed artefin were added to neurons immediately after seeding. For the RET inhibition assay, the inhibitory goat anti-mouse RET antibody (4.1 μg/ml; R&D systems, Abingdon, United Kingdom) or control goat IgG (4.1 μg/ml; Santa Cruz Biotechnology, Dallas, TX, United States) were added to neurons 1 h before stimulation with ARTN (0.042 nM) […]. For the competition assay between growth factor and mimetic peptide, a combination of ARTN (2.1 nM) and artefin (4.2 μM) was added to the cells immediately after seeding. […]
To estimate neurite outgrowth, neurons were fixated 24 h after stimulation and stained with rabbit anti-growth-associated-protein-43 (GAP-43) antibody (Chemicon International, Inc., Temecula, CA, United States) or anti-GFP antibody (for transfection experiment) overnight at 4°C followed by incubation with secondary Alexa-conjugated goat anti-rabbit antibodies (Invitrogen, Taastrup, Denmark). In case of experiments with plasmid transfection, the transfection efficiency was ca. 20% of total cells and the neurite outgrowth was evaluated only in GFP-positive, i.e., transfected, cells. […]
Computer-assisted fluorescent microscopy was performed using a Nikon Diaphot 300 inverted microscope (Nikon) equipped with a Nikon Plan 20× objective and coupled to a video camera (Grundig Electronics, Germany). For each condition in each experiment, including the experiment with transfections, images of approximately 200 cells were recorded in systematic series of fields of view, and neurite outgrowth was quantified using a stereological approach as previously described ([Rønn et al., 2000]). […]

[2] = system: RET; cerebellar granule neurons (CGNs); assay: Neurite outgrowth in CGNs transfected with dominant negative RET (dnRET); assay type: cell-based, Wistar rat; settings: 24 h, P2-d 8 μg/ml, ARTN 0.21 nM, artefin 1.4 μM; for neurite outgrowth in mock-transfected neurons: empty vector, versus control
Protocol: as §1
To evaluate the involvement of NCAM and RET in neurite outgrowth induced by either ARTN or artefin, CGNs (3 × 10^6 per transfection) were transfected with 3 μg DNA using a Nucleofector^TM 2b device and a Rat Neuron Nucleofector Kit (Amaxa, Inc., Gaithersburg, MD, United States). A kinase-deleted dominant negative RET insert was obtained by direct PCR using a commercially available clone (IRAKp961P02132Q; RZPD, Berlin, Germany) encoding full-length mouse RET coding sequence 586–3807 nt. as template. The upper primer […] contained a NheI restriction site and Kozak sequence, and the lower primer […] encoded Streptag II and NotI restriction sites. The dominant negative RET insert and the pcDNA5/FRT expression vector containing the Flp-In system were cut with NheI and NotI restriction enzymes, purified, ligated using the Rapid DNA Ligation Kit (Roche, Basel, Switzerland), and transfected into One Shot TOP10 E. coli (Invitrogen, Taastrup, Denmark). E. coli colonies containing the dominant negative RET insert were identified by PCR, and one insert-positive colony was used for plasmid purification. The identity of the purified plasmid was verified by restriction cutting and sequencing of the insert. For NCAM knock down, we used a pENTR vector containing the shRNA expression cassette for NCAM knock down ([Hansen et al., 2007]). An empty vector was used as a control. To identify transfected neurons, all transfections were performed as co-transfections with 0.5 μg pEGFP-N1, an expression vector encoding the enhanced variant of green fluorescent protein (GFP; Clontech, Palo Alto, CA, United States). Transfected CGNs were seeded in Neurobasal^TM-A medium supplemented with 2% (v/v) B27, 5% (v/v) FCS, and 2 mM Glutamax at a density of 1 × 10^5 cells/cm^2.
To estimate neurite outgrowth, neurons were fixated 24 h after stimulation and stained with rabbit anti-growth-associated-protein-43 (GAP-43) antibody (Chemicon International, Inc., Temecula, CA, United States) or anti-GFP antibody (for transfection experiment) overnight at 4°C followed by incubation with secondary Alexa-conjugated goat anti-rabbit antibodies (Invitrogen, Taastrup, Denmark). In case of experiments with plasmid transfection, the transfection efficiency was ca. 20% of total cells and the neurite outgrowth was evaluated only in GFP-positive, i.e., transfected, cells. For representative pictures, cells were additionally co-stained with Hoechst 33258.
Computer-assisted fluorescent microscopy was performed using a Nikon Diaphot 300 inverted microscope (Nikon) equipped with a Nikon Plan 20× objective and coupled to a video camera (Grundig Electronics, Germany). For each condition in each experiment, including the experiment with transfections, images of approximately 200 cells were recorded in systematic series of fields of view, and neurite outgrowth was quantified using a stereological approach as previously described ([Rønn et al., 2000]).
FIGURE 7 Neuritogenic effect of ARTN and artefin in (A) dominant negative RET or (B) knock down NCAM-expressing CGNs. […]

Row | Molecule | neurite outgrowth effect in the presence of SU5402 [1] | neurite outgrowth in dnRET-transfected neurons [2] | neurite outgrowth in mock-transfected neurons [2]
1 | I: RSPHDLSLASLLGAGKK-NH2 / II: RSPHDLSLASLLGAGK / III: RSPHDLSLASLLGAG / IV: RSPHDLSLASLLGAG (amide I:16-IV:C, I:17-II:C, II:16-III:C; C-terminus assumed) [artefin] | dose-dependently inhibited the neurite outgrowth effect of artefin | abrogated in dnRET-transfected neurons (p < 0.01 versus artefin alone | significantly increased neurite outgrowth in mock-transfected neurons (p < 0.01 versus control)
2 | B1 | completely abolished in the presence of serially diluted inhibitor | abolished in neurons expressing dnRET (p < 0.05 versus ARTN alone | significantly increased by ARTN in mock-transfected neurons (p < 0.05 versus control)
